Measurements as given in PMC4142866, “The chemoenzymatic synthesis of clofarabine and related 2′-deoxyfluoroarabinosyl nucleosides: the electronic and stereochemical factors determining substrate recognition by E. coli nucleoside phosphorylases” (Beilstein Journal of Organic Chemistry, 2014).

Target: T1, recombinant E. coli purine nucleoside phosphorylase (PNP) (Escherichia coli, UniProt P0ABP8)
T1 construct: gene deoD
T1 sequence (P0ABP8 2-239): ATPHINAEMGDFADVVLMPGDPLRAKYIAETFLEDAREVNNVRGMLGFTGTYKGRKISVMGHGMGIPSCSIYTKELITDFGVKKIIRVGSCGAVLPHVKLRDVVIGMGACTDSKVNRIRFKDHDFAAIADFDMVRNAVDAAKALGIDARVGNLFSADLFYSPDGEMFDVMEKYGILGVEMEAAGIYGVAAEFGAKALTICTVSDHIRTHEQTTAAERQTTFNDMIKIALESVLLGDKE
Assay: inhibition of PNP nucleoside synthesis
Type: biochemical
Conditions: not a substrate; moderate inhibitor of the synthetic reaction; no value

Compound | inhibition of PNP nucleoside synthesis
O=c1[nH]cnc2c1cnn2[C@@H]1O[C@H](CO)[C@@H](O)[C@@H]1O [5b, arabinoside 5b] | nucleosides 4b and 5b are not substrates for E. coli PNP and moderately inhibit
Nc1nc(=O)n2ccn([C@@H]3O[C@H](CO)[C@@H](O)[C@@H]3O)c2n1 [4b, arabinoside 4b] | nucleosides 4b and 5b are not substrates for E. coli PNP and moderately inhibit
